Data taken from US20250114311A1, “IONIZABLE CATIONIC COMPOUNDS FOR MESSENGER RNA DELIVERY” (SEQIRUS INC., priority 2021, published 2025).

Legend:
[1] = TNS fluorescence apparent pKa protocol for saRNA-LNP; assay type: physicochemical; conditions: saRNA-LNPs, TNS 6 μM, to 9.5, 25° C., EC50 of sigmoidal curve
Description: In a black 96-well plate, solutions of saRNA-LNP (final assay concentration 2 μg/mL total RNA) in a series of buffers ranging from pH 4 to 9.5 were prepared. Buffers between pH4 to 7.6 were prepared from disodium phosphate and citric acid. Buffers from 7.8 to 9.5 were prepared by titrating tris buffer with 10 N sodium hydroxide. To each well was added 6-(p-Toluidino)-2-naphthalenesulfonic acid sodium salt (TNS) in water to a final assay concentration of 6 μM. The fluorescence was read on a plate reader at 25° C. with an excitation setting of 321 nm and an emission setting of 445 nm. The intensity values were plotted as a function of pH using GraphPad Prism and were fit with a sigmoidal dose response curve. The apparent pKa was determined as the EC50 of this curve where half of the ionizable amines are expected to be protonated.

BHK-V cells = test: In vitro potency of saRNA-LNPs (antigen-expressing cells, flow cytometry); assay type: cell-based; conditions: FIG. 3
Description: The ability of the saRNA-LNPs to transfect cultured cells was characterized using an in vitro assay based on the percentage of cells expressing the antigen of interest. Specifically, 1 million BHK-V cells were co-incubated with saRNA-LNP of varying concentration (highest 50 ng per well, lowest 0.39 ng per well) in 0.3 mL of media for 17-19 hours at 37° C. with 5% CO2. Subsequently, the cells were scraped from the dish to form a single-cell suspension, fixed and permeabilized (BD Cytofix/Perm kit), and then stained with fluorophore-labeled antigen-specific antibodies against H5 and N1 (for saRNA expressing both H5 and N1). Luciferase expression was not measured for saRNA expressing both H5 and luciferase. The percentage of single or double antigen positive cells was quantified using a BD Accuri flow cytometer. […] The slope of that line multiplied by −100,000 was reported as the LNP potency. Alternatively, a similar assay was performed in a 96-well using BHK-21 cells and analysed using a Cytation 5 Cell Imaging Multimode Reader (Agilent). The results of this assay were analysed in the same way as described for the flow cytometry assay.

Balb/c mice = test: Mouse immunogenicity study, antigen-specific T cells by intracellular cytokine staining; assay type: in vivo; conditions: prime-boost, LNPs with saRNA expressing H5 and N1, peptide stimulation, FIG. 6

CCCCCCCCCC(CCCCCCCCC(=O)OCC(CCCC)CCCCCC)OC(=O)CCCN(C)C (stereo not shown) [Compound 11]
pKa [1]: 6.25
LNP potency (in vitro), comparison of the two LNPs (BHK-V cells; both saRNA constructs examined): trended higher in potency
ability to transfect BHK-V cells in vitro (BHK-V cells; saRNA-LNP, 17-19 hours): able to transfect
activated antigen-specific CD8 T cells (Balb/c mice): measurable levels
